Test results published in ChEMBL document CHEMBL1131086, “Synthesis and biological activity of conformationally restricted analogues of milnacipran: (1S, 2R)-1-phenyl-2-[(R)-1-amino-2-propynyl]-N,N- diethylcyclopropanecarboxamide is a novel class of NMDA receptor channel blocker” (J Med Chem, 1998).

What was measured:
Glutamate NMDA receptor = target: Glutamate NMDA receptor; set-up: species or system Rattus norvegicus
Description: Inhibition of [3H]MK-801 binding to N-methyl-D-aspartate glutamate receptor of rat cerebral cortical synaptic membrane

[1] = target: Sodium-dependent serotonin transporter (Rattus norvegicus, UniProt P31652); test: Inhibition of Serotonin transporter in cerebral cortical synaptic membrane of rats using [3H]paroxetine
[2] = target: T1, 5-hydroxytryptamine receptor 2C (Rattus norvegicus) (UniProt P08909); test: Compound tested for relative response using 0.1 uM 5-HT as agonist against 5-hydroxytryptamine 2C receptor; type: functional
T1 sequence (whole entry): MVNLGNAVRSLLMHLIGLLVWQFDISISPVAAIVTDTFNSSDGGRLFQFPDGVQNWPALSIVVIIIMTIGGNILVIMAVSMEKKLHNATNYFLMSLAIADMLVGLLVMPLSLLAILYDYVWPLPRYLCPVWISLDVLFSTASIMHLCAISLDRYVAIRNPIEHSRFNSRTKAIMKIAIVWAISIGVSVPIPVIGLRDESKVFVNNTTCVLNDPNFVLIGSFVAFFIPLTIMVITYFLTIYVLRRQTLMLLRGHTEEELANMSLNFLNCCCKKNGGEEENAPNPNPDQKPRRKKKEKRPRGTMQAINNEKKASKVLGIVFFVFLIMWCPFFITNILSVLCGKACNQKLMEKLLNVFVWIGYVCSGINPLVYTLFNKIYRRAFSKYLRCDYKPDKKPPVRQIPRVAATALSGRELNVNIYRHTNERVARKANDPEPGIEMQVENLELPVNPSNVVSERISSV

[3] = target: T2, Muscarinic acetylcholine receptor M1 (Rattus norvegicus) (UniProt P08482); test: Compound tested for relative response using 1 uM ACh as agonist against AChM1 receptor.; type: functional
T2 sequence (whole entry): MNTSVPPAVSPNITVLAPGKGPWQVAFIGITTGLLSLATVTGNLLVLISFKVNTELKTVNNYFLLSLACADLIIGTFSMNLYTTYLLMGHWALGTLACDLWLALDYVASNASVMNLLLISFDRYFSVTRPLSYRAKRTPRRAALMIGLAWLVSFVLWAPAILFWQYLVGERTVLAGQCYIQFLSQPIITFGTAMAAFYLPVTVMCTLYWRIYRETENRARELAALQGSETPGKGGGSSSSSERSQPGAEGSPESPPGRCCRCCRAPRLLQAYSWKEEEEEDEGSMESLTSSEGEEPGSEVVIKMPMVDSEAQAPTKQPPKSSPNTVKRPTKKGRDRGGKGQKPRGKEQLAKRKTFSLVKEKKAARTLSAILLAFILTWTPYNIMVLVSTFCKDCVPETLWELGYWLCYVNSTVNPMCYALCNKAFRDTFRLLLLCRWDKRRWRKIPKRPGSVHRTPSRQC

[4] = target: GABA-A receptor; anion channel (Rattus norvegicus) (UniProt O09028+P15431+P18506+P18508+P19969+P20236+P23574+P23576+P28471+P28473+P30191+P62813+P63079+P63138+Q91ZM7+Q9ES14); test: Compound tested for relative response using 30 uM GABA as agonist against Gamma-aminobutyric acid A receptor; type: functional
[5] = target: Glutamate receptor ionotropic, kainate (Rattus norvegicus) (UniProt P22756+Q01812+P42260+P42264+Q63273); test: Compound tested for relative response using 30 uM kainate as agonist against Ionotropic glutamate receptor kainate; type: functional
[6] = target: Glutamate receptor ionotropic, AMPA (Rattus norvegicus) (UniProt P19491+P19492+P19493+P19490); test: Compound tested for relative response using 10 uM AMPA as agonist against Ionotropic glutamate receptor AMPA; type: functional
[7] = target: Glutamate receptor ionotropic, NMDA 1 (Rattus norvegicus) (UniProt P35439); test: Compound tested for relative response using 30 uM NMDA+10 uM glycine as agonist against N-methyl-D-aspartate glutamate receptor 1; type: functional

Chain of Sodium-dependent serotonin transporter (P31652 whole entry): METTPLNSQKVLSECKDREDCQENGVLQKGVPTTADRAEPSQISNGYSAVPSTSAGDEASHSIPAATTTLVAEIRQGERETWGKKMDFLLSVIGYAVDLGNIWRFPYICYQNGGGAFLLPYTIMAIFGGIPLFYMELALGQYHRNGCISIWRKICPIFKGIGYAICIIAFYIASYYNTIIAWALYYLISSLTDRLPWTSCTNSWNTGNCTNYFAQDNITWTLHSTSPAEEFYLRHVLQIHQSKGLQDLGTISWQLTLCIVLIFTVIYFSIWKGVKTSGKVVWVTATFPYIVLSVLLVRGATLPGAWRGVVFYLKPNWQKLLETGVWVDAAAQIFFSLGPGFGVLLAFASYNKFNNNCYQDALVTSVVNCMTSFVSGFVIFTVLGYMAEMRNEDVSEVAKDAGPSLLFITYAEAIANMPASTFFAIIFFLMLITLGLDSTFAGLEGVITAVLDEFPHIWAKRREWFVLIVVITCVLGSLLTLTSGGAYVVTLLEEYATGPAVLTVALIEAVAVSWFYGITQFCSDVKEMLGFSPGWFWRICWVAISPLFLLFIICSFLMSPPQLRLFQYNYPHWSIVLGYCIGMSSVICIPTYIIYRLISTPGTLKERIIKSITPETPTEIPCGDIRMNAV

Compound	IC50 (Glutamate NMDA receptor) [µM]	Ki [1] [µM]	further results
CCN(CC)C(=O)[C@@]1(c2ccccc2)C[C@H]1C(N)C(=O)OC (some centres undefined)	> 100	25	–
CCN(CC)C(=O)[C@@]1(c2ccccc2)C[C@H]1C(N)C#N (stereo in doubt; 3e)	> 100	–	–
CCN(CC)C(=O)[C@@]1(c2ccccc2)C[C@H]1C(N)C(=O)O (some centres undefined)	> 100	> 100	–
C#CC(N)[C@@H]1C[C@@]1(C(=O)N(CC)CC)c1ccccc1 (stereo in doubt; 2d) [listing 2 of 2 here]	–	–	Relative response [2]: 100%; Relative response [3]: 102%; Relative response [4]: 99.6%; Relative response [5]: 96.9%; Relative response [6]: 100%; Relative response [7]: 32.1%
CCN(CC)C(=O)[C@@]1(c2ccccc2)C[C@H]1C(N)C#N (stereo in doubt; 2e)	96	> 100	–

The remaining compounds from weak to strong by IC50 (Glutamate NMDA receptor), led by results:

IC50 (Glutamate NMDA receptor) [µM]	Ki [1] [µM]	Compound	further results
27	> 100	CCN(CC)C(=O)[C@@]1(c2ccccc2)C[C@H]1C(N)C(N)=O (some centres undefined)	–
16	15	C#CC(N)[C@@H]1C[C@@]1(C(=O)N(CC)CC)c1ccccc1 (stereo in doubt; 3d)	–
0.29	0.19	C#CC(N)[C@@H]1C[C@@]1(C(=O)N(CC)CC)c1ccccc1 (stereo in doubt; 2d) [listing 1 of 2 here]	–
